Source: ChEMBL document CHEMBL1201862, “PubChem BioAssay data set” (2004)
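Five concentrations, 48 hours, 96-well plates. At the GI50, growth is halved.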 Active and inactive are the calls of the source. Rule as the data show it: active = GI50 up to about 1.1 µM and inactive = higher.

Tests used:
Assay in all cases: growth of human tumour cells (NCI), 48 h
ACHN = test system: ACHN
COLO 205 = test system: COLO 205
HCC 2998 = test system: HCC 2998
HCT-116 = test system: HCT-116
HOP-62 = test system: HOP-62
NCI-H460 = test system: NCI-H460
NCI/ADR-RES = test system: NCI/ADR-RES
OVCAR-5 = test system: OVCAR-5
RPMI-8226 = test system: RPMI-8226
RXF 393 = test system: RXF 393
SF-268 = test system: SF-268
SK-MEL-5 = test system: SK-MEL-5
SN12C = test system: SN12C
SNB-75 = test system: SNB-75
SR = test system: SR
T47D = test system: T47D
TK-10 = test system: TK-10
UACC-257 = test system: UACC-257
UO-31 = test system: UO-31
SNB-19 = test system: SNB-19

`O=c1c2nc[nH]c2n(-c2ccccc2)c(=S)n1-c1ccccc1` was tested, and the GI50 (ACHN) was > 100 µM (inactive), the GI50 (COLO 205) was > 100 µM (inactive) and the GI50 (HCC 2998) was > 100 µM (inactive). The GI50 (HCT-116) was > 100 µM (inactive), the GI50 (HOP-62) was > 100 µM (inactive) and the GI50 (NCI-H460) was > 100 µM (inactive). For the same compound, the GI50 (NCI/ADR-RES) was > 100 µM (inactive), the GI50 (OVCAR-5) was > 100 µM (inactive) and the GI50 (RPMI-8226) was > 100 µM (inactive). The GI50 (RXF 393) was > 100 µM (inactive), the GI50 (SF-268) was > 100 µM (inactive) and the GI50 (SK-MEL-5) was > 100 µM (inactive). For the same compound, the GI50 (SN12C) was > 100 µM (inactive), the GI50 (SNB-75) was > 100 µM (inactive) and the GI50 (SR) was > 100 µM (inactive). For the same compound, the GI50 (T47D) was > 100 µM (inactive), the GI50 (TK-10) was > 100 µM (inactive) and the GI50 (UACC-257) was > 100 µM (inactive). For the same compound, the GI50 (UO-31) was > 100 µM (inactive).

For `CCOC(=O)C(NC(=O)Nc1ccc(Cl)c(Cl)c1)C(F)(F)F` (stereo not given), the GI50 (ACHN) was 57.4 µM (inactive), the GI50 (COLO 205) was > 100 µM (inactive) and the GI50 (HCC 2998) was > 100 µM (inactive). The GI50 (HCT-116) was > 100 µM (inactive), the GI50 (NCI/ADR-RES) was > 100 µM (inactive) and the GI50 (OVCAR-5) was > 100 µM (inactive). For the same compound, the GI50 (RPMI-8226) was > 100 µM (inactive), the GI50 (RXF 393) was > 100 µM (inactive) and the GI50 (SF-268) was > 100 µM (inactive). For the same compound, the GI50 (SK-MEL-5) was > 100 µM (inactive), the GI50 (SN12C) was > 100 µM (inactive) and the GI50 (SNB-19) was > 100 µM (inactive). The GI50 (SNB-75) was > 100 µM (inactive), the GI50 (SR) was > 100 µM (inactive) and the GI50 (T47D) was > 100 µM (inactive). For the same compound, the GI50 (TK-10) was > 100 µM (inactive), the GI50 (UACC-257) was > 100 µM (inactive) and the GI50 (UO-31) was 49.8 µM (inactive).

For `O=C(O)C/N=C(\C(=N\CC(=O)O)c1ccccc1)c1ccccc1`, the GI50 (ACHN) was > 100 µM (inactive), the GI50 (COLO 205) was > 100 µM (inactive) and the GI50 (HCC 2998) was > 100 µM (inactive). For the same compound, the GI50 (HCT-116) was > 100 µM (inactive), the GI50 (HOP-62) was > 100 µM (inactive) and the GI50 (NCI-H460) was > 100 µM (inactive). For the same compound, the GI50 (NCI/ADR-RES) was > 100 µM (inactive), the GI50 (OVCAR-5) was > 100 µM (inactive) and the GI50 (RPMI-8226) was 85.7 µM (inactive). For the same compound, the GI50 (RXF 393) was > 100 µM (inactive), the GI50 (SF-268) was > 100 µM (inactive) and the GI50 (SN12C) was > 100 µM (inactive). For the same compound, the GI50 (SNB-19) was > 100 µM (inactive), the GI50 (SNB-75) was > 100 µM (inactive) and the GI50 (SR) was > 100 µM (inactive). For the same compound, the GI50 (T47D) was 68.5 µM (inactive), the GI50 (TK-10) was > 100 µM (inactive) and the GI50 (UACC-257) was > 100 µM (inactive). The GI50 (UO-31) was 90.2 µM (inactive).

With `CN1CCN(Cn2nc(-c3ccccc3)n(/N=C/c3ccc(-c4ccc(Cl)cc4Cl)o3)c2=S)CC1` the GI50 (HCC 2998) was 12.8 µM (inactive), the GI50 (HCT-116) was 3.66 µM (inactive) and the GI50 (HOP-62) was 11.4 µM (inactive). The GI50 (NCI-H460) was 5.61 µM (inactive), the GI50 (NCI/ADR-RES) was 16 µM (inactive) and the GI50 (OVCAR-5) was 15.2 µM (inactive). For the same compound, the GI50 (RPMI-8226) was 8.61 µM (inactive), the GI50 (RXF 393) was 4.22 µM (inactive) and the GI50 (SF-268) was 5.83 µM (inactive). For the same compound, the GI50 (SK-MEL-5) was 7.71 µM (inactive), the GI50 (SR) was 1.51 µM (inactive) and the GI50 (T47D) was 15.5 µM (inactive). For the same compound, the GI50 (TK-10) was 15.1 µM (inactive), the GI50 (UACC-257) was 18 µM (inactive) and the GI50 (UO-31) was 14.8 µM (inactive).

`O/N=C(/CC(O)(C(F)(F)F)C(F)(F)F)c1ccccc1` was tested, and the GI50 (ACHN) was > 10 µM (inactive), the GI50 (COLO 205) was > 10 µM (inactive) and the GI50 (HCC 2998) was > 10 µM (inactive). For the same compound, the GI50 (HCT-116) was > 10 µM (inactive), the GI50 (HOP-62) was > 10 µM (inactive) and the GI50 (NCI-H460) was > 10 µM (inactive). The GI50 (NCI/ADR-RES) was > 10 µM (inactive), the GI50 (OVCAR-5) was > 10 µM (inactive) and the GI50 (RPMI-8226) was > 10 µM (inactive). The GI50 (RXF 393) was > 10 µM (inactive), the GI50 (SF-268) was > 10 µM (inactive) and the GI50 (SK-MEL-5) was 2.1 µM (inactive). The GI50 (SN12C) was > 10 µM (inactive), the GI50 (SNB-19) was > 10 µM (inactive) and the GI50 (SNB-75) was > 10 µM (inactive). The GI50 (SR) was > 10 µM (inactive), the GI50 (T47D) was > 10 µM (inactive) and the GI50 (TK-10) was > 10 µM (inactive). For the same compound, the GI50 (UACC-257) was > 10 µM (inactive).

With `COc1cc2c(cc1OCCCCCN1C(=O)c3cccc4cccc(c34)C1=O)N=C[C@@H]1CCCN1C2=O` the GI50 (ACHN) was 0.167 µM (active), the GI50 (COLO 205) was 0.28 µM (active) and the GI50 (HCC 2998) was 0.3 µM (active). For the same compound, the GI50 (HCT-116) was 0.215 µM (active), the GI50 (HOP-62) was 0.262 µM (active) and the GI50 (NCI-H460) was 0.316 µM (active). For the same compound, the GI50 (NCI/ADR-RES) was 0.421 µM (active), the GI50 (OVCAR-5) was 0.406 µM (active) and the GI50 (RPMI-8226) was 0.119 µM (active). The GI50 (RXF 393) was 0.0647 µM (active), the GI50 (SF-268) was 0.207 µM (active) and the GI50 (SK-MEL-5) was 0.257 µM (active). For the same compound, the GI50 (SN12C) was 0.336 µM (active), the GI50 (SNB-19) was 0.327 µM (active) and the GI50 (SNB-75) was 0.34 µM (active). For the same compound, the GI50 (SR) was < 0.01 µM (active), the GI50 (T47D) was 0.13 µM (active) and the GI50 (TK-10) was 0.129 µM (active). For the same compound, the GI50 (UACC-257) was 0.323 µM (active) and the GI50 (UO-31) was 0.153 µM (active).

For `CCOC(=O)c1[nH]c(Br)c(-c2ccc(OC)c(OC)c2)c1Br`, the GI50 (ACHN) was 0.0242 µM (active), the GI50 (COLO 205) was 0.175 µM (active) and the GI50 (HCC 2998) was 0.199 µM (active). For the same compound, the GI50 (HCT-116) was 0.0183 µM (active), the GI50 (HOP-62) was 0.0608 µM (active) and the GI50 (NCI-H460) was 0.766 µM (active). For the same compound, the GI50 (NCI/ADR-RES) was 0.00434 µM (active), the GI50 (OVCAR-5) was 5.27 µM (inactive) and the GI50 (RPMI-8226) was 0.01 µM (active). The GI50 (RXF 393) was 0.00906 µM (active), the GI50 (SF-268) was 0.178 µM (active) and the GI50 (SK-MEL-5) was 0.0412 µM (active). The GI50 (SN12C) was 0.117 µM (active), the GI50 (SNB-19) was 0.181 µM (active) and the GI50 (SNB-75) was 0.0259 µM (active). For the same compound, the GI50 (SR) was 0.0214 µM (active), the GI50 (T47D) was 21 µM (inactive) and the GI50 (TK-10) was 14 µM (inactive). For the same compound, the GI50 (UACC-257) was 0.00386 µM (active) and the GI50 (UO-31) was 0.0676 µM (active).
